Among the test systems are T-47D breast; 786-0 renal; SK-MEL-28 melanoma; CAKI-1 renal; RXF 393 renal; SR leukemia; M14 melanoma; CCRF-CEM leukemia; BT-549 breast.
What all share (experiment): NCI anticancer screen, dose series, 48 h

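Where inhibition never reached the appropriate level, the endpoint shown equals the highest concentration tested. Otherwise, values were interpolated linearly from a five-concentration, 48-hour dose response in 96-well plates. GI50: concentration for 50% inhibition of growth. TGI denotes the concentration required for complete inhibition of growth.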

As for `O=C(O)c1ccccc1N=Nc1c(O)c(S(=O)(=O)O)cc2cc(S(=O)(=O)O)ccc12`, the TGI in the test on T-47D breast, in the test on 786-0 renal, in the test on SK-MEL-28 melanoma, in the test on CAKI-1 renal, in the test with RXF 393 renal and in the test on SR leukemia was > 100 µM each time. Besides, the TGI in the test on M14 melanoma and with CCRF-CEM leukemia was > 100 µM in each case.

As for `COc1cc(Nc2nc3cc(C(F)(F)F)ccc3n3cccc23)cc(OC)c1OC`, the TGI in the test on T-47D breast is 9.91 µM; with SK-MEL-28 melanoma it was > 100 µM; in the test on CAKI-1 renal, > 100 µM; with RXF 393 renal, > 100 µM; with BT-549 breast, > 100 µM; with M14 melanoma, > 100 µM. Further, the TGI with CCRF-CEM leukemia is > 100 µM.

On to `N#CCCC1(CCC#N)CCCCCCCCC(CCC#N)(CCC#N)C(O)C1O` (centres undefined), for which the TGI was > 100 µM in the test with T-47D breast; > 100 µM with 786-0 renal; > 100 µM in the test on SK-MEL-28 melanoma; > 100 µM in the test with CAKI-1 renal; 86.9 µM with RXF 393 renal; > 100 µM in the test on M14 melanoma.

In the case of `COC(=O)Cc1c(-c2c(CC(=O)OC)c3ccccc3n2C2OC(COC(C)=O)C(OC(C)=O)C(OC(C)=O)C2OC(C)=O)[nH]c2ccccc12` (centres undefined), the TGI with SK-MEL-28 melanoma, in the test with CAKI-1 renal, with SR leukemia, in the test on BT-549 breast, in the test on M14 melanoma and in the test on CCRF-CEM leukemia was > 100 µM throughout.

Regarding `CCOC(=O)C1CCCCN1C(=O)Cc1c[nH]c2ccccc12` (centres undefined), the TGI in the test on T-47D breast, in the test on 786-0 renal, with SK-MEL-28 melanoma, in the test on CAKI-1 renal, with RXF 393 renal and in the test on BT-549 breast was > 100 µM in each case. Besides, the TGI in the test on M14 melanoma and with CCRF-CEM leukemia was > 100 µM each time.

`CN=C(Nc1cccc(C(F)(F)F)c1)SCc1ccc(N=C=S)cc1`: the TGI was 29.9 µM in the test with T-47D breast; 31 µM in the test on 786-0 renal; 48.9 µM with SK-MEL-28 melanoma; 30.4 µM in the test with CAKI-1 renal; 29.3 µM in the test with RXF 393 renal; 40.4 µM in the test on SR leukemia. Moreover, the TGI in the test with CCRF-CEM leukemia is > 100 µM.

`COc1cccc(C2c3cc4c(cc3OC3COC(=O)C32)OCO4)c1OC` (centres undefined): the TGI with 786-0 renal, in the test with SK-MEL-28 melanoma, in the test with CAKI-1 renal, in the test with RXF 393 renal, with BT-549 breast and with M14 melanoma was > 100 µM in each case. The TGI in the test with CCRF-CEM leukemia is > 100 µM.

With `CC[C@@]1(O)C(=O)OCc2c1cc1n(c2=O)Cc2c-1nc1ccccc1c2/C=N\NC(=O)C(N)CCSC` (some centres undefined), the TGI in the test on 786-0 renal was 1.92 µM; in the test with SK-MEL-28 melanoma, > 100 µM; with SR leukemia, < 0.0397 µM; in the test on M14 melanoma it was 0.473 µM; in the test with CCRF-CEM leukemia, > 100 µM.

As for `Cn1c(=O)n2n(c1=O)C(C)(C13CC4CC(CC(C4)C1)C3)C13CC4CC(CC1C4)CC23` (centres undefined), the TGI with T-47D breast, in the test with SK-MEL-28 melanoma, in the test on CAKI-1 renal, in the test on SR leukemia, in the test on BT-549 breast and in the test with M14 melanoma was > 100 µM throughout. For the same molecule, in the test with CCRF-CEM leukemia, the TGI is > 100 µM.

Regarding `COc1ccc(Nc2ccc([N+](=O)[O-])cc2[N+](=O)[O-])cc1CN(CCCl)CCCl`, the GI50 in the test with T-47D breast was 2.6 µM; with SK-MEL-28 melanoma it was 3.24 µM; in the test with CAKI-1 renal, 1.39 µM; in the test with SR leukemia, 0.378 µM; with BT-549 breast, 1.41 µM; in the test with M14 melanoma, 2.72 µM. Further, the GI50 in the test with CCRF-CEM leukemia is 0.64 µM. For the same molecule, the TGI in the test with T-47D breast was 26.4 µM; with SK-MEL-28 melanoma, 18.4 µM; in the test with CAKI-1 renal, 4.33 µM; in the test on SR leukemia, 79.5 µM; in the test with BT-549 breast, 3.96 µM; in the test with M14 melanoma it was 19.6 µM. Besides, the TGI in the test with CCRF-CEM leukemia was determined as 20.7 µM.

Consider `CCN(CC)c1nnc(CCCCCCCCc2nnc(N(CC)CC)o2)o1`, for which the TGI in the test with 786-0 renal, in the test on SK-MEL-28 melanoma, with CAKI-1 renal, in the test on RXF 393 renal, with BT-549 breast and with M14 melanoma was > 100 µM in each case. In addition, the TGI with CCRF-CEM leukemia was > 100 µM.

Regarding `C=C1CC[C@@H](C)[C@](C)(CCc2ccoc2)C/C=C\C=C/1C(=O)O`, the TGI in the test on 786-0 renal was > 100 µM; in the test on SK-MEL-28 melanoma, 48.6 µM; in the test with CAKI-1 renal it was > 100 µM; in the test with RXF 393 renal it was 90.8 µM; with SR leukemia, 59.2 µM; in the test on BT-549 breast, 49.1 µM. Further, the TGI is > 100 µM with M14 melanoma and 90.3 µM in the test on CCRF-CEM leukemia.

Take `CC(C)(CCC(C)(C)N1OC1c1ccccc1)N1OC1c1ccccc1` (centres undefined): the TGI is > 100 µM in the test on T-47D breast; > 100 µM with 786-0 renal; > 100 µM with SK-MEL-28 melanoma; 60.3 µM with CAKI-1 renal; 40.3 µM in the test with SR leukemia; > 100 µM in the test with BT-549 breast. In addition, the TGI in the test on CCRF-CEM leukemia is 35 µM.

Take `COc1cc(O)c2c(=O)c(OC)c(-c3ccc(OC)c(OC)c3)oc2c1`: the GI50 in the test with T-47D breast is 31.1 µM; in the test on SK-MEL-28 melanoma it was 18 µM; in the test with M14 melanoma it was > 100 µM. For the same molecule, the TGI in the test with T-47D breast was > 100 µM; in the test on SK-MEL-28 melanoma it was 51.6 µM; with CAKI-1 renal, 57.1 µM; with M14 melanoma, > 100 µM; in the test with CCRF-CEM leukemia, > 100 µM.

Take `C=C(C)[C@@H]1CC[C@]2(C(=O)OC)CC[C@]3(C)[C@H](CC[C@@H]4[C@@]5(C)CC[C@H](O)C(C)(C)[C@@H]5CC[C@]43C)[C@@H]12`: the TGI in the test on T-47D breast was 34 µM; with 786-0 renal, 45.9 µM; in the test with SK-MEL-28 melanoma, 47.2 µM; with CAKI-1 renal, 39.6 µM; with RXF 393 renal, 38.9 µM; in the test on SR leukemia, > 100 µM. Also, the TGI was > 100 µM with M14 melanoma and 48.9 µM in the test with CCRF-CEM leukemia.

As for `c1ccc(N=C2c3ccsc3C(=Nc3ccccc3)c3ccsc32)cc1`, the TGI with T-47D breast was 4.06 µM; in the test with 786-0 renal, 6.25 µM; in the test with SK-MEL-28 melanoma it was 3.97 µM; with CAKI-1 renal, 10.2 µM; in the test with RXF 393 renal, 3.52 µM; in the test with BT-549 breast, 3.6 µM. In addition, the TGI in the test on M14 melanoma is 2.32 µM; in the test on CCRF-CEM leukemia, 15 µM.

For the molecule `COc1cccc(C(=O)C#Cc2cnc(OC)nc2OC)c1`, the TGI in the test with 786-0 renal was 3.61 µM; in the test with SK-MEL-28 melanoma it was 4.22 µM; in the test with CAKI-1 renal, 4.39 µM; in the test with RXF 393 renal, 1.39 µM; in the test with BT-549 breast it was 2.63 µM; with M14 melanoma, 6.28 µM.

`CCCn1c(=O)c(N2CCN(c3ccccc3)CC2)nc2sc3ccccc3c21`: the TGI with T-47D breast, with 786-0 renal, in the test on SK-MEL-28 melanoma, in the test with CAKI-1 renal, in the test on BT-549 breast and in the test on M14 melanoma was > 100 µM throughout. For the same molecule, the TGI in the test with CCRF-CEM leukemia was > 100 µM.

Consider `C[N+](C)(C)c1ncnc2c1ncn2C1CCCO1` (centres undefined), for which the TGI with T-47D breast, in the test on 786-0 renal, in the test on SK-MEL-28 melanoma, with RXF 393 renal, in the test with BT-549 breast and in the test on M14 melanoma was > 100 µM in each case. In addition, the TGI in the test on CCRF-CEM leukemia was > 100 µM.

With `COc1ccc(C2=NOC(N)(c3ccc(OC)cc3)C2)cc1` (centres undefined), the TGI in the test with 786-0 renal, in the test on SK-MEL-28 melanoma, in the test on CAKI-1 renal, with SR leukemia, with BT-549 breast and in the test with M14 melanoma was > 100 µM in each case. Also, the TGI with CCRF-CEM leukemia was > 100 µM.

For `N#C/C(C(=S)NCc1ccccc1)=C(/N)N1CCCC1`, the TGI in the test on T-47D breast, in the test on 786-0 renal, with SK-MEL-28 melanoma, in the test with CAKI-1 renal, in the test on RXF 393 renal and in the test on SR leukemia was > 100 µM in each case. Besides, the TGI in the test with M14 melanoma and in the test on CCRF-CEM leukemia was > 100 µM each time.

On to `NC(Cc1ccc(S(=O)(=O)O)cc1)C(=O)NC(Cc1ccc(S(=O)(=O)O)cc1)C(=O)NC(Cc1ccc(S(=O)(=O)O)cc1)C(=O)NC(Cc1ccc(S(=O)(=O)O)cc1)C(=O)O` (centres undefined), for which the TGI in the test with T-47D breast, in the test on 786-0 renal, in the test on SK-MEL-28 melanoma, in the test with CAKI-1 renal, in the test with RXF 393 renal and in the test with BT-549 breast was > 100 µM in each case. The TGI in the test on M14 melanoma and in the test with CCRF-CEM leukemia was > 100 µM in each case.

Turning to `COC(=O)C1CCC(=O)N1C(c1ccc2c(c1)OCO2)c1cc(OC)c(OC)c(OC)c1` (centres undefined), the TGI in the test with 786-0 renal, in the test with SK-MEL-28 melanoma, in the test with CAKI-1 renal, in the test with SR leukemia, with BT-549 breast and in the test on M14 melanoma was > 100 µM throughout. The TGI in the test with CCRF-CEM leukemia was > 100 µM.

As to `O=c1[nH]nc(-c2ccccc2)n1O`, the TGI in the test on T-47D breast, with 786-0 renal, in the test with SK-MEL-28 melanoma, in the test on CAKI-1 renal, in the test with RXF 393 renal and in the test with SR leukemia was > 100 µM each time. The TGI in the test on M14 melanoma and in the test on CCRF-CEM leukemia was > 100 µM each time.
